Laboratory results from US12295937B2, “Psychoactive medicines and their use for treating psychiatric and neurological conditions and disorders” (Transcend Therapeutics, Inc., priority 2021, dated 2025).
Like-named read-outs stand apart in the source and are kept apart here.

Experiments:
SERT [1] = target: T1, SERT (Rattus norvegicus, UniProt P31652); experiment: [3H]5-HT release from rat brain synaptosomes; format: biochemical; parameters: from tissue; synaptosomes for uptake and release
Protocol: (§1) Test compounds and synaptosomes were prepared as described for uptake inhibition assays. Synaptosomes treated with [^3H]5-HT, [^3H]DA or [^3H]NE were loaded onto filter chambers containing GF/C filters and placed in a superfusion system. Oxygenated Krebs buffer was perfused through the chambers at a rate of 1.5 mL/minute at 35° C. using either an 8-channel or a 12-channel peristaltic pump. Trapped air bubbles were removed from the filters prior to collecting fractions to ensure an even flow over the synaptosomal bed. After a superfusion period of 45 minutes, 2 basal fractions were collected followed by 6 fractions following the addition of the test drug. […] Scintillation cocktail was added, and the filters counted to determine residual radioactivity. Drug-evoked release of neurotransmitter was calculated by subtracting the average of the two basal fractions (collected prior to the drug addition), from the four fractions collected in the presence of drug. The drug-evoked release was then expressed as a percentage of the basal release. Potassium-evoked release was calculated by subtracting the average of two fractions collected prior to the addition of high KCl buffer from that in the two fractions following addition of high KCl buffer. Potassium-stimulated release was calculated as a percentage of basal release. […]

DAT [2] = target: T2, DAT (Rattus norvegicus, UniProt P23977); experiment: [3H]DA release from rat brain synaptosomes; format: biochemical; parameters: from tissue; synaptosomes for uptake and release
T2 sequence (P23977 whole entry): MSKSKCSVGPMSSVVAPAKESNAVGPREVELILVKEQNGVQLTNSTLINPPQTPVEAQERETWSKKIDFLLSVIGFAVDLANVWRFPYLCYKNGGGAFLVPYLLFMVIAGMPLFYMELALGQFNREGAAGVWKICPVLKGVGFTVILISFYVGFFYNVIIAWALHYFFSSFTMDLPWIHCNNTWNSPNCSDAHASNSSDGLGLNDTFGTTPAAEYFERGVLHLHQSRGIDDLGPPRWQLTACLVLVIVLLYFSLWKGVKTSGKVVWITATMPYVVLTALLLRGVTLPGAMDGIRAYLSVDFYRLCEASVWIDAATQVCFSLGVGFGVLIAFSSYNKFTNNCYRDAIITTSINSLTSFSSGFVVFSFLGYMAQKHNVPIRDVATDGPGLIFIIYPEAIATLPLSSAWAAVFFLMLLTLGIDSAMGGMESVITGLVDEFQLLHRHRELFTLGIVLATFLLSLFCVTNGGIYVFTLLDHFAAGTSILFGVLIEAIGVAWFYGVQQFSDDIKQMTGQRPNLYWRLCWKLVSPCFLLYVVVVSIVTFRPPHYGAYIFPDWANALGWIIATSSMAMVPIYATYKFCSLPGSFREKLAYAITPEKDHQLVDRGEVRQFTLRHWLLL
Protocol: as §1

[3] = target: T3, Human serotonin 5HT2B receptor (Homo sapiens, UniProt P41595); settings: read-out: Ki (reported); reported values; cited from earlier work
T3 sequence (P41595 whole entry): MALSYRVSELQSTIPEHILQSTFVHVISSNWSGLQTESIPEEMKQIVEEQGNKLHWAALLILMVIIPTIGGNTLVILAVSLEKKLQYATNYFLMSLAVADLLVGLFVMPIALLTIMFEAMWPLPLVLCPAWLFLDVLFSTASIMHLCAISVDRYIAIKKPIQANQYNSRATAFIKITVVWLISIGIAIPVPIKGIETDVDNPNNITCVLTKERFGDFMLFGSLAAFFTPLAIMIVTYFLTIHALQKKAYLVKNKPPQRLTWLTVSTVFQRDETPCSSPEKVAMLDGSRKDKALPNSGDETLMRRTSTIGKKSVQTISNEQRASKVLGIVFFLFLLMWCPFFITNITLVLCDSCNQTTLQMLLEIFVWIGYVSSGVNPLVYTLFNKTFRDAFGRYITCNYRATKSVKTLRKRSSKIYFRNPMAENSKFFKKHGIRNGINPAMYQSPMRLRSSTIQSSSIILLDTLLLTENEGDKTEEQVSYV

NET [4] = target: T4, NET (Rattus norvegicus, UniProt Q63380); experiment: [3H]NE uptake inhibition in rat brain synaptosomes
T4 sequence (Q63380 1-617): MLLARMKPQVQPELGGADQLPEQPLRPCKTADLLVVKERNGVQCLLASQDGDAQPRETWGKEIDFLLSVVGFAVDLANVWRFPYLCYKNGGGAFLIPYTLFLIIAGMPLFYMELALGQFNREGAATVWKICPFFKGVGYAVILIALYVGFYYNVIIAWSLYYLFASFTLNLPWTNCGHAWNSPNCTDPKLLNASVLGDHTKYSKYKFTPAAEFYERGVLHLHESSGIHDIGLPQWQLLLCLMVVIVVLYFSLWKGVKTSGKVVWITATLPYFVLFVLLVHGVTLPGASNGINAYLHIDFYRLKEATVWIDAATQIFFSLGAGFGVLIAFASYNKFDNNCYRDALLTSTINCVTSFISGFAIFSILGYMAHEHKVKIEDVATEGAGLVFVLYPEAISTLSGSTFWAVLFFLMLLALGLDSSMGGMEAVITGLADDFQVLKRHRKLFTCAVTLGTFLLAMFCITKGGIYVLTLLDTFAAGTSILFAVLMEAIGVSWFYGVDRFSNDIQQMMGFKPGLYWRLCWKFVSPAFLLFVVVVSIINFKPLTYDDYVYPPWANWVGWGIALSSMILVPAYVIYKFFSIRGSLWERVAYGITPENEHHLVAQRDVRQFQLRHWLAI

5HT2C receptor [5] = target: T5, 5HT2C receptor (Homo sapiens, UniProt P28335); experiment: GPCRmax screen, antagonist mode, 5HT2C; format: cell-based; settings: 1 or 10 mM
T5 construct: host or cells: PathHunter cell lines
T5 sequence (P28335 33-458): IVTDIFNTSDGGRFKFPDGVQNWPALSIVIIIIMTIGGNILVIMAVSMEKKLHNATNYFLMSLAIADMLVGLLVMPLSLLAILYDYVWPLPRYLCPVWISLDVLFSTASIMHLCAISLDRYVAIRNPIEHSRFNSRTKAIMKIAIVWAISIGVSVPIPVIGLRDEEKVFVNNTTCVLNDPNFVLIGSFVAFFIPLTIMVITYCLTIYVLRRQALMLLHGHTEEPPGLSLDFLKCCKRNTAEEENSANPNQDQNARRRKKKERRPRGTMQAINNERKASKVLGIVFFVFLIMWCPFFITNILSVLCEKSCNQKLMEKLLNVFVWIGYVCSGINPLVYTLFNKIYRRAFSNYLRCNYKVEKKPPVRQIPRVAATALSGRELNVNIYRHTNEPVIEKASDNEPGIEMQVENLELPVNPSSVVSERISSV

[6] = test system: gene expression in amygdala, frontal cortex, hippocampus; experiment: RNA-sequencing of rat brain areas after a single dose; format: in vivo
DAT [7] = target: T2, DAT; experiment: [3H]DA uptake inhibition in rat brain synaptosomes
[8] = 7.5 mg/kg 30 minutes prior to extinction training (Young 2015); cited from earlier work
5HT2C receptor [9] = target: T5, 5HT2C receptor; experiment: GPCRmax screen, agonist mode, 5HT2C; format: cell-based; settings: 1 or 10 mM
[10] = 13 of 77 deaths, meta-analysis; cited from earlier work
NET [11] = target: T4, NET; experiment: [3H]NE release from rat brain synaptosomes; format: biochemical; parameters: from tissue; synaptosomes for uptake and release
Protocol: as §1

5HT2A receptor = target: T6, 5HT2A receptor (Homo sapiens, UniProt P28223); experiment: GPCRmax screen, agonist mode, 5HT2A; format: cell-based; settings: 1 or 10 mM
T6 construct: host or cells: PathHunter cell lines
T6 sequence (P28223 whole entry): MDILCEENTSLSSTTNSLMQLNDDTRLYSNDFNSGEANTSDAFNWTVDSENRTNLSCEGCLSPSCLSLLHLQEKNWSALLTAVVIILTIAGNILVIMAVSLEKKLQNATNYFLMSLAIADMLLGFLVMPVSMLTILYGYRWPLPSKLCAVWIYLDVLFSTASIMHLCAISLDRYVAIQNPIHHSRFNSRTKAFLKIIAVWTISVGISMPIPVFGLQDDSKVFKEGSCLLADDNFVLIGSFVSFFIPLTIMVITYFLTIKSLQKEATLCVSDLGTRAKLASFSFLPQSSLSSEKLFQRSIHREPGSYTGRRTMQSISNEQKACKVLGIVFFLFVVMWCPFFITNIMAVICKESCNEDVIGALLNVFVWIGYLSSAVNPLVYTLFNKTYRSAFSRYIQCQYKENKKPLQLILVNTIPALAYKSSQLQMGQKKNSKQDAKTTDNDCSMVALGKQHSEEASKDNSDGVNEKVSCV

[12] = depending on the animal model and dosing conditions; cited from earlier work
SERT [13] = target: T1, SERT; experiment: [3H]5-HT uptake inhibition in rat brain synaptosomes
[14] = target: T3, Human serotonin 5HT2B receptor; experiment: Competitive radioligand binding to 5HT2B receptor membranes
Protocol: Human serotonin 5HT2B receptor membrane preparations were divided into aliquots. On the day of the assay, membranes were diluted at 1:200 in incubation buffer. […] To each well was added 150 μL membrane preparation, 50 μL test compound, non-specific compound, or buffer alone, as well as 50 μL radioligand. The plate was incubated at 35° C. for 90 minutes with gentle agitation. […] For each concentration of drug, non-specific binding was subtracted from total binding to give specific binding. […] Ki was subsequently calculated using the ChengPrusoff equation.

[15] = cited from earlier work
[16] = test system: myelin basic protein (MBP); experiment: Myelin basic protein immunohistochemistry in amygdala; format: in vivo, rat; settings: 10 mg/kg IP, 24 h
Protocol: Immunohistochemistry: The in-life portion of the study was conducted at WuXi Apptec (Cranbury, NJ). Sectioning and staining of brains took place at Neuroscience Associates (NSA, Knoxville, TN). […] Brains were post-fixed in PFA before shipment to NSA for processing and staining. Hemisected brains were mounted, sectioned and stained using standard protocols with myelin-basic protein primary antibody (MBP SMI-99, 1:5000, Biolegend, San Diego, CA) and anti-mouse biotinylated secondary antibody (BA-2001, Vector Laboratories, Newark, CA). Slides were imaged using a Huron Digital Pathology TissueScope LE120 whole slide scanning system. 20× objective was used with a 0.4 μm/pixel resolution.

T1 sequence (P31652 whole entry, the tested form may be a part): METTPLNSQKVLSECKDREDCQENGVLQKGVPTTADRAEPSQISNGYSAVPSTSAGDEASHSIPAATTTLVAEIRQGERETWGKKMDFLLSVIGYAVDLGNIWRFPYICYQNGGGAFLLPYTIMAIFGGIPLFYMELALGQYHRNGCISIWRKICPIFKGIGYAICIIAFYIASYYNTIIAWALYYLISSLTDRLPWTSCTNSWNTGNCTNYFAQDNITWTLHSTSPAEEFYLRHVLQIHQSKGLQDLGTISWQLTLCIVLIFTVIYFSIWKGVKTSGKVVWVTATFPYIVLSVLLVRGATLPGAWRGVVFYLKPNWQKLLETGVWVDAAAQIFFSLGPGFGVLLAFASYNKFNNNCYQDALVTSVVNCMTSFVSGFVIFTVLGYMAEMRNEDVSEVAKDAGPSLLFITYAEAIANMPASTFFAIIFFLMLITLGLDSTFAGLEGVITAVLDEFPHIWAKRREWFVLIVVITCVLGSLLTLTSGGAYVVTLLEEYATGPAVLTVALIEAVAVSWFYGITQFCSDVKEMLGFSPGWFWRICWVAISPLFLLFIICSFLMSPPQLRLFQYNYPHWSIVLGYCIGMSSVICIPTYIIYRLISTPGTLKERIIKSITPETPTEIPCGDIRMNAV

Compound: CNC(C)Cc1ccc2c(c1)OCO2 (racemic) [MDMA, 3,4-Methylenedioxymethamphetamine]
- EC50 (SERT [1]): 160 nM
- EC50 (DAT [2]): 1420 nM
- Ki [3]: 500 nM
- IC50 (NET [4]): 120 nM
- Antagonist % inhibition (5HT2C receptor [5]): 52.2%
- Additional genes significantly regulated by MDMA only ([6]; amygdala): 1313 genes
- Genes downregulated by MDMA only ([6]; amygdala): 774 genes
- Genes regulated by MDMA that are also regulated by methylone ([6]; amygdala): 7%
- Genes upregulated by MDMA only ([6]; amygdala): 539 genes
- Genes regulated by both treatments ([6]; frontal cortex): 154 genes
- More genes regulated than methylone ([6]; frontal cortex): ~72%
- Genes significantly regulated ([6]; frontal cortex, 10 mg/kg IP (Example 27)): 825 genes
- IC50 (DAT [7]): 2500 nM
- Reduced freezing vs. saline (extinction recall) [8]: 35%
- Agonist % activity (5HT2C receptor [9]): 28.0%
- Blood concentrations in deaths attributable to MDMA alone [10]: 478 to 53900 ng/mL
- EC50 (NET [11]): 490 nM
- Agonist % activity (5HT2A receptor): 27.5%
- half-life [12]: 5 to 7 h
- IC50 (SERT [13]): 1800 nM
- Times greater affinity for the 5HT2B receptor compared with methylone [14]: 7.5 times
- Reduction in immobility in the FST ([15]; 5 mg/kg, Flinders Sensitive Line rats): 45%
- Reduction in immobility in the FST ([15]; 5 mg/kg, Sprague Dawley rats (Majumder 2011)): 45%
- Reduction in immobility in the FST ([15]; 10 mg/kg, Flinders Sensitive Line rats): 93%
- Reduction in immobility in the FST ([15]; 10 mg/kg, Sprague Dawley rats (Majumder 2011)): 78%
- MBP in basolateral and central nuclei of the amygdala vs. vehicle [16]: significant reduction in MBP
